Source: ChEMBL document CHEMBL3407420, “In silico studies, synthesis and binding evaluation of substituted 2-pyrrolidinones as peptidomimetics of RGD tripeptide sequence” (Eur J Med Chem, 2015)

Legend:
Integrin alpha-V/beta-5 = Integrin alpha-V/beta-5 (Homo sapiens, UniProt P06756+P18084); assay: Binding affinity to alphaVbeta5 receptor (unknown origin); assay type: protein-complex assay
Integrin alpha-V/beta-3 = Integrin alpha-V/beta-3 (Homo sapiens, UniProt P05106+P06756); assay: Displacement of [125I]echistatin from purified human alphaVbeta3 receptor after 3 hrs by gamma counting; assay type: protein-complex assay
Integrin alpha-V/beta-3, sequence (P05106 27-788 limits assumed): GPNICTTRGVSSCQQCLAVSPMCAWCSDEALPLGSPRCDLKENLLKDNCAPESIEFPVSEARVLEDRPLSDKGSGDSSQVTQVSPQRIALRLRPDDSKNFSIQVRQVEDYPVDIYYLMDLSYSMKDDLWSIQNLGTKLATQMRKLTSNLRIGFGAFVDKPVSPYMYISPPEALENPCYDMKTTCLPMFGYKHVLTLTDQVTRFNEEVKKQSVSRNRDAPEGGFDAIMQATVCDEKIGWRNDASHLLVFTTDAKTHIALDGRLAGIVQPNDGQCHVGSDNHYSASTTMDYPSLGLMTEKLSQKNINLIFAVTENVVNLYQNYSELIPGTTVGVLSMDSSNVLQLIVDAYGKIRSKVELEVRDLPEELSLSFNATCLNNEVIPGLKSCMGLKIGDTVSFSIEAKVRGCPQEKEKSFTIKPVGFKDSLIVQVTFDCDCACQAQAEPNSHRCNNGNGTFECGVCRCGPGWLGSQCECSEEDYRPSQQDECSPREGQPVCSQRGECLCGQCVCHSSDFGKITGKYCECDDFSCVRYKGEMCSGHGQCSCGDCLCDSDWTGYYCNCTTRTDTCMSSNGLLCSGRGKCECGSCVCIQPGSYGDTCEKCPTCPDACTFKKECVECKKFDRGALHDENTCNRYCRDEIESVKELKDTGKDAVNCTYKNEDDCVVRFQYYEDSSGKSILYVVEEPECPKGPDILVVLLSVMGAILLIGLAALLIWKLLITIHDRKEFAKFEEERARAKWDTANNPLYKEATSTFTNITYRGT
Integrin alpha-V/beta-3, sequence (P06756 31-889 limits assumed): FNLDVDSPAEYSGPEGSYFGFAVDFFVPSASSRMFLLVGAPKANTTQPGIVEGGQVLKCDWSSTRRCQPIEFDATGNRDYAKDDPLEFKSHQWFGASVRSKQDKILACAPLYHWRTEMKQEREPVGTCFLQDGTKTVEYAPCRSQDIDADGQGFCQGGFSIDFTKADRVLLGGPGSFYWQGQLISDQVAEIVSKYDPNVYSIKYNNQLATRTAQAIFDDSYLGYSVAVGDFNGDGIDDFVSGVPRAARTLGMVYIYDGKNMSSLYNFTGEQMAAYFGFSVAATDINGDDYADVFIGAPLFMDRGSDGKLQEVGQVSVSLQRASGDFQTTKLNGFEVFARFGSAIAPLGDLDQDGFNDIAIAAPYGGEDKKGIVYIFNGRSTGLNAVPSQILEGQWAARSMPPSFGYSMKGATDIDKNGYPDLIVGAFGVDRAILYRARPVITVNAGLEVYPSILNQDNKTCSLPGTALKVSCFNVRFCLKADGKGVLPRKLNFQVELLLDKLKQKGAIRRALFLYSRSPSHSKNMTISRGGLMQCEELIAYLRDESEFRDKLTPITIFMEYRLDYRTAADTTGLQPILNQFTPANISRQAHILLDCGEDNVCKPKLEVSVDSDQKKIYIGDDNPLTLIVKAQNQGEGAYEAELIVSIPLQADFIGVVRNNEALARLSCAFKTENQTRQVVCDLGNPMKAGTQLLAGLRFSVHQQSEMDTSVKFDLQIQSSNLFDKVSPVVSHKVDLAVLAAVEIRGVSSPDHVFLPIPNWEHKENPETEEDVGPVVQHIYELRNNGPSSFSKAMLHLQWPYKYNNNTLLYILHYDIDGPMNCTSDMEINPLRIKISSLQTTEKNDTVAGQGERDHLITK
Integrin alpha-V/beta-3, sequence (P06756 891-1048 limits assumed): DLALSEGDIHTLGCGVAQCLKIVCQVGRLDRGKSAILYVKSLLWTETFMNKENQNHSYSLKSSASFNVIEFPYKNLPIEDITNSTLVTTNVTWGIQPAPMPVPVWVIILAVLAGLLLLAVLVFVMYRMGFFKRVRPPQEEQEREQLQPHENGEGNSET

Integrin alpha-V/beta-5, sequence (P06756 31-889 limits assumed): as the sequence (P06756 31-889 limits assumed) above
Integrin alpha-V/beta-5, sequence (P06756 891-1048 limits assumed): as the sequence (P06756 891-1048 limits assumed) above
Integrin alpha-V/beta-5, sequence (P18084 24-799 limits assumed): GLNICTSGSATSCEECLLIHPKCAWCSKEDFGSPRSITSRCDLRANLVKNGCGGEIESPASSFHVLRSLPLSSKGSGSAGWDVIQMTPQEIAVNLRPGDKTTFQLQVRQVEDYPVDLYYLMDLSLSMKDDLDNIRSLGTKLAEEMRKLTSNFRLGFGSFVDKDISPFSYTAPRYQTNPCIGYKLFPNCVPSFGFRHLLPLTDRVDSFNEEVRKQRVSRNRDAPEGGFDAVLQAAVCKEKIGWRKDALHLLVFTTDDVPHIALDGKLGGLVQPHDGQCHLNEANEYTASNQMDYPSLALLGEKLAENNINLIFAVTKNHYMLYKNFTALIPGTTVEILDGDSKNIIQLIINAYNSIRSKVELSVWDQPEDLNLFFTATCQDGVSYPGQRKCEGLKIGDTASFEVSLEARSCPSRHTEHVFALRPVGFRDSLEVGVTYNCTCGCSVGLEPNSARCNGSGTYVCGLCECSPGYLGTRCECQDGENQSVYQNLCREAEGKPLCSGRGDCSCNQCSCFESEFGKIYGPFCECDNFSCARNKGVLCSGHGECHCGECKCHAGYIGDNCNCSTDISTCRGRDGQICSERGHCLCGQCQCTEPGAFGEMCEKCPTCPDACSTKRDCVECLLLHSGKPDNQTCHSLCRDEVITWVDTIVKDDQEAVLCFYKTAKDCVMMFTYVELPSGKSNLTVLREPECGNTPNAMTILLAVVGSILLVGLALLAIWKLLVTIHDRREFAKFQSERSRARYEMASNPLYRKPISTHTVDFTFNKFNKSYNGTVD

Compound	IC50 (Integrin alpha-V/beta-5) [µM]	IC50 (Integrin alpha-V/beta-3) [µM]
N=C(N)NCCC[C@@H]1NC(=O)[C@H](CCCCN)NC(=O)[C@@H](Cc2ccccc2)NC(=O)[C@H](CC(=O)O)NC(=O)CNC1=O	30	
N=C(N)NCCC[C@@H]1CCN([C@@H](CCCCN)C(=O)NCCC(=O)O)C1=O		50
N=C(N)NCCC[C@@H]1CCN([C@@H](CCCCNC(=O)OCc2ccccc2)C(=O)NCCC(=O)O)C1=O		100
N=C(N)NCCNC(=O)[C@H](CCCCNC(=O)OCc1ccccc1)N1CC[C@H](CCC(=O)O)C1=O		> 100
